{"source": "patent US9968609B2", "about": "“Sildenafil solutions and methods of making and using same” (Vigorous Solutions Ltd., priority 2014, dated 2018)", "assay": "Spectrophotometric absorbance at 228 nm before and after 0.22 micron filtration (Example 12)", "assay_type": "physicochemical", "details": "70% ethanol in water, organic solvent or mixture; as prepared in Example 1, 70% ethanol; read-out: concentration at which fully soluble", "experimental": "A UV-VIS Genesys 105 Thermo Scientific spectrophotometer was used for the assay. Samples were placed in a UV Kurette Halbmicro/UV Cuvette semi micro [Cat no: 759150] for reading.\nBecause the reference describes measurements at μg/ml concentrations, both the filtered and unfiltered 18 mg/ml solutions were diluted to 9 μg/ml and 12.5 μg/ml and measured again.", "note": "Counter-ions that a name gives are not always drawn."}
{"smiles": "CCCc1nn(C)c2c(=O)[nH]c(-c3cc(S(=O)(=O)N4CCN(C)CC4)ccc3OCC)nc12", "note": "[sildenafil citrate]", "values": [{"measurement": "solubility at 10 min", "value": 18, "unit": "mg/mL"}]}
